Values quoted from earlier work, collected in patent EP0919231A1, “Injectable parasiticide composition and process for the preparation” (Biogenesis, S.A., priority 1997, dated 1999).

Experiments:
[1] = bovines; for detected in plasma, time postreatment: metabolite after administering albendazole or phenbendazole respectively; for detection of parent drug in plasma: after administering albendazole or phenbendazole, found in the gastrointestinal lumen
Haemonchus contortus = details: strain resistant to benzimidazoles; intravenous compared with oral administration
[2] = test system: Trichostrongylus colubriformis; details: strain resistant to benzimidazoles; intravenous compared with oral administration

Compound | detected in plasma, time postreatment [1] [h] | effectiveness intravenous versus oral (Haemonchus contortus) | effectiveness intravenous versus oral [2] | detection of parent drug in plasma [1]
COC(=O)Nc1nc2ccc([S+]([O-])c3ccccc3)cc2[nH]1 (stereo not drawn) [oxphendazole, methyl ester of [(5-phenyl-sulphinyl)-1H-benzimidazol-2-il] carbamic acid] | ≤ 36 | more effective | more effective | –
CCCSc1ccc2nc(NC(=O)OC)[nH]c2c1 [albendazole] | – | – | – | not detected
COC(=O)Nc1nc2ccc(Sc3ccccc3)cc2[nH]1 [phenbendazole] | – | – | – | not detected
CCC[S+]([O-])c1ccc2[nH]c(NC(=O)OC)nc2c1 (stereo not drawn) [ricobendazole, methyl ester of [(5-propyl-sulphinyl)-1H-benzimidazol-2-il] carbamic acid] | ≤ 36 | – | – | –
